Literature values as cited in EP0077028B1, “Renin inhibitory peptides” (Merck & Co., Inc., priority 1981, dated 1987).

System: hog renin
Details: after the injection of hog renin into nephrectomized rats

For pepstatin, the “blood pressure in vivo” value is listed as “reduce blood pressure”.
